For series [1], the target named is PARP1 (Homo sapiens (Human), UniProt P09874). Put plainly: PARP1 inhibitory activity, Universal PARP colorimetric assay kit (Trevigen). Particulars: for IC50: PARP1. Type of series: biochemical. From the text:
1. Measuring PARP1 Inhibitory Activity
1.1 Materials and Methods
Universal PARP colorimetric assay kit (US Trevigen company)

Series [2] can be described thus: Preliminary pharmacokinetics study in SD rats (single intravenous injection or oral gavage, plasma LC-MS/MS). The class given is in vivo. The note with it: for AUC(0-inf) / AUC(0-t) / clearance / half-life / Vd / bioavailability / Cmax / Tmax: male, Sprague-Dawley (SD), rat; for Vd: read-out: VdSS; for bioavailability: single oral gavage 10 mg/kg vs intravenous 5 mg/kg, read-out: F (oral bioavailability). As for the experimental part: 2. Preliminary Pharmacokinetics Study of Compounds A1, A3, A6 in SD Rats
Healthy SPF SD male rats: 18, weighing 180-220 g, purchased from Shanghai Si Lai Ke Lab Animal Co. Ltd.; animal license no. SOCK (Shanghai) 2013-00016.
Rats were divided into intravenous injection group and oral gavage administration group, and fast for 12-14 hours before experiments. Test compounds' concentration in venous blood was measured. Venous blood was collected by orbital, EDTAK2 anticoagulation. The blood samples were placed on ice, and centrifuged within 30 minutes to separate plasma (centrifugal condition: 5000 rpm/min, 10 min, room temperature). The samples were stored at −80° C. prior to analysis.
Rats in intravenous injection group received a single injection 5 mL/kg of the test compounds. Rats in oral gavage administration group received a single dose 10 mL/kg of the test compounds. Venous blood sample collection times were: before the injection of the test compound (0 hr); after the injection of the test compound: 15 min, 30 min, 1 h, 2 h, 4 h, 6 h, 8 h and 24 h; before the oral gavage administration of the test compound (0 hr) and after the oral gavage administration of the test compounds, 30 min, 1 h, 2 h, 4 h, 6 h, 8 h and 24 h.
Liquid phase conditions: column: Agilent Eclipse plus-C18 (4.6×150 mm, 5.0 μm), mobile phase: 0.1% aqueous formic acid (A)/0.1% formic acid in acetonitrile (B); gradient elution, flow rate: 1.00 mL/min (split v:v=1:1); injection volume: 10 μL.
MS conditions: using electrospray ionization (ESI) and the positive ion mode under multiple reaction monitoring (MRM).
Compounds A1, A3, and A6 were weighed precisely and added to MDSO to prepare 1.00 mg/mL stock solutions. After the stock solutions were diluted to prepare 10000, 5000, 2000, 1000, 500, 100, 50.0, 20.0 ng/mL standard working solutions. Quality control work concentrations include low (30 ng/mL), medium (500 ng/mL), and high (8000 ng/mL).
10 μL plasma sample was added 100 μL verapamil internal standard solution. The mixture was vortexed for 60 seconds and then centrifuged (12000 rpm, 3 min). 70 μL supernatant was transferred to a 96-well plate with equal volume of water in each well. LC-MS/MS analysis was then conducted, and the injection volume was 10 μL.
Data were processed by using WinNonlin 6.3 pharmacokinetic calculation software and non-compartment pharmacokinetic model to obtain major pharmacokinetic parameters.

Setting [3] is: in vivo, single intravenous injection, 5 mg/kg.
The mark [4] stands for this setting: in vivo, single oral gavage, 10 mg/kg.
Setting [5] is: plasma, single oral gavage, 10 mg/kg.
The mark [6] stands for this setting: single intravenous injection, 5 mg/kg.
Setting [7] is: plasma, single intravenous injection, 5 mg/kg.

“And” between values parts separate entries of the source, which are not always exact repeats. Equal entries are not always repeated. Where two headings read alike, the source gives them in different places.

The values that follow come from US10106550B2, “Aza-phenalene-3-ketone derivative, preparation method thereof, and its application as PARP inhibitor” (SUZHOU KANGRUN PHARMACEUTICALS INC., priority 2015, dated 2018).

In general, inhibition refers to the share of the control response that was lost under treatment. For orientation: IC50 means the midpoint of a concentration-inhibition curve. As usually defined, the AUC(0-inf) is total exposure, with the tail of the curve extrapolated. A low value points to low exposure. Broadly, the AUC(0-t) is the area under the concentration-time curve up to a stated or last time point. Read a high AUC(0-t) as more exposure. One may read the half-life as how long it takes for the measured level to halve. High values mean slow loss, low ones fast loss. A word on the bioavailability: it is the share of a dose that reaches the circulation, judged against a reference dose that is usually intravenous. For orientation: Cmax means the highest concentration seen after dosing. For orientation: Tmax means the time from dosing to the highest level.

PARP1, sequence (P09874 whole entry): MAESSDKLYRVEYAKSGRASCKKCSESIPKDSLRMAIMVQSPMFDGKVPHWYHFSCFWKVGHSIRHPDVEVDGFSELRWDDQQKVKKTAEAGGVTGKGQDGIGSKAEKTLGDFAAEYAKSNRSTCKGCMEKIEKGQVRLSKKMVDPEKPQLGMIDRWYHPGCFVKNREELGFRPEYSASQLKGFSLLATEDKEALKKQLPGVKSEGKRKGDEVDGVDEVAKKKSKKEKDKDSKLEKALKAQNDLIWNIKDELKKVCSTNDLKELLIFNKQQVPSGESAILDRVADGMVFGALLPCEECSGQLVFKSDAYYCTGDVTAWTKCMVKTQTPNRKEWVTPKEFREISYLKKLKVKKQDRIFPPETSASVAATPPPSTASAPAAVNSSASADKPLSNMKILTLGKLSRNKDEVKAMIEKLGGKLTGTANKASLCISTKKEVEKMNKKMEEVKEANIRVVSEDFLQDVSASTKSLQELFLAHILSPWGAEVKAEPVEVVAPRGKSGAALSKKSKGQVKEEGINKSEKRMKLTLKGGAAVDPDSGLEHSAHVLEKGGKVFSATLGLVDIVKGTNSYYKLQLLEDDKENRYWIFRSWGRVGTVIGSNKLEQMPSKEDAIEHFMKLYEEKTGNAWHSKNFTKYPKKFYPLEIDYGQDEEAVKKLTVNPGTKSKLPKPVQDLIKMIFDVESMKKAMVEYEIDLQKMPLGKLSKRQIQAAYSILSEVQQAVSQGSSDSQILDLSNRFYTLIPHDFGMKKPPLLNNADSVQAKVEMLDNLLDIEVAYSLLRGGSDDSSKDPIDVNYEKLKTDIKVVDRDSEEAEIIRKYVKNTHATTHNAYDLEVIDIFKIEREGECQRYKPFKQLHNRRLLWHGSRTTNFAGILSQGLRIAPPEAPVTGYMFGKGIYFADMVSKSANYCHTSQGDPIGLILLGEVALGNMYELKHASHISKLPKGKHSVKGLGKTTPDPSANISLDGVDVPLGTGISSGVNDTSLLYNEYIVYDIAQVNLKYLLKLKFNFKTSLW

For `NC(=O)c1ccc(I)c([N+](=O)[O-])c1` [BSI-201, reference compound], the inhibition at 1 µM in series [1] (PARP1, 1 μM, read-out: inhibition rate) came out at 22.4%.
For `NC(=O)c1cccc(N)c1` [Compound 3-AB, reference compound], the inhibition at 1000 µM in series [1] (PARP1, 1 mM, read-out: inhibition rate) was 100%.
For `Cl.O=c1[nH]nc2c3c(cccc13)N=C1CNCCN12` [Compound A1], the IC50 in series [1] was 90.5 nM. Also, the “exposure levels (AUC0-4)” value in series [2] is reported as “higher”. In series [2] (setting [3]), this compound had an area under the curve AUC(0-inf) of 4280 ± 317 ng·h/mL, an area under the curve AUC(0-t) of 4250 ± 304 ng·h/mL, a clearance of 19.5 ± 1.4 mL/min/kg and a half-life of 91.8 ± 9.6 min. Besides, in series [2] (setting [3]), the Vd came to 1.11 ± 0.11 L/kg. Further, in series [2] (in vivo), the bioavailability was 67.5% and 67.1%. Moreover, in series [2] (setting [4]), the AUC(0-inf) was 5740 ± 841 ng·h/mL, the AUC(0-t) came to 5710 ± 802 ng·h/mL, the Cmax was 3120 ± 173 ng/mL and the half-life was 80.4 ± 7.2 min. Moreover, in series [2] (setting [5]), the time of peak concentration (Tmax) came out at 30 min. Besides, in series [2] (setting [6]), the AUMC0-inf is given as 4190 ± 575 h · h · ng · mL^−1, the AUMC0-t is 3790 ± 547 h · h · ng · mL^−1, the Kel worked out at 0.463 ± 0.063 h⁻¹ and the MRTIV was 57.2 ± 6.24 min. In series [2] (single oral gavage, 10 mg/kg), this compound returned an AUMC0-inf of 9200 ± 336 h · h · ng · mL^−1, an AUMC0-t of 8548 ± 240 h · h · ng · mL^−1, a CL of 29.7 ± 3.2 mL·min/kg and a Kel of 0.523 ± 0.046 h⁻¹. Besides, in series [2] (single oral gavage, 10 mg/kg), the MRTPO worked out at 1.55 ± 0.20 h and the Vz was 3.62 ± 0.37 L/kg.
In series [1], `CCN1CCN2C(=Nc3cccc4c(=O)[nH]nc2c34)C1` [Compound A2] showed an IC50 of 65.7 nM.
`CN1CCN2C(=Nc3cccc4c(=O)[nH]nc2c34)C1` [Compound A3] showed an IC50 in series [1] of 130 nM. The “exposure levels (AUC0-4)” value in series [2] was “higher”. In series [2] (setting [7]), this compound gave an AUC(0-inf) of 2290 ± 321 ng·h/mL, an AUC(0-t) of 2290 ± 323 ng·h/mL, a clearance of 38.4 ± 2.5 mL/min/kg and a half-life of 43.3 ± 4.92 min. Besides, the Vd in series [2] (setting [7]) came out at 1.15 ± 0.07 L/kg. The bioavailability in series [2] (plasma) is 50.5 ± 6.8%. Also, in series [2] (setting [5]), the total exposure AUC(0-inf) turned out to be 2310 ± 309 ng·h/mL, the AUC(0-t) was 2340 ± 334 ng·h/mL, the peak concentration (Cmax) worked out at 1860 ± 251 ng/mL and the Tmax was 15 min. This compound showed a half-life in series [2] (setting [5]) of 50.9 ± 3.3 min. Besides, in series [2] (setting [6]), the AUMC0-inf came out at 1175 ± 105 h · h · ng · mL^−1, the AUMC0-t was found to be 1145 ± 120 h · h · ng · mL^−1, the Kel turned out to be 1.02 ± 0.034 h⁻¹ and the MRTIV came out at 30.4 ± 2.4 min. In addition, in series [2] (single oral gavage, 10 mg/kg), the AUMC0-inf is 2658 ± 308 h · h · ng · mL^−1, the AUMC0-t is 2566 ± 474 h · h · ng · mL^−1, the CL came out at 71.3 ± 7.6 mL·min/kg and the Kel came out at 0.818 ± 0.036 h⁻¹. In series [2] (single oral gavage, 10 mg/kg), this compound came in with an MRTPO of 1.08 ± 0.094 h and a Vz of 5.22 ± 0.81 L/kg.
For `CC(C)N1CCN2C(=Nc3cccc4c(=O)[nH]nc2c34)C1` [Compound A4], the IC50 in series [1] is 111 nM.
Consider `O=c1[nH]nc2c3c(cccc13)N=C1CN(Cc3ccccc3)CCN12` [Compound A5], for which the 50% inhibitory concentration (IC50) in series [1] came out at 58.7 nM.
As for `C=C(C)CCN1CCN2C(=Nc3cccc4c(=O)[nH]nc2c34)C1` [Compound A6], the IC50 in series [1] came to 39.1 nM. For the same compound, the “exposure levels (AUC0-4)” value in series [2] is “higher”. In series [2] (setting [7]), this compound showed a total exposure AUC(0-inf) of 1040 ± 118 ng·h/mL, an area under the curve AUC(0-t) of 1000 ± 92 ng·h/mL, a clearance of 83.1 ± 13.3 mL/min/kg and a half-life of 11.5 ± 0.72 min. The Vd in series [2] (setting [7]) was 1.1 ± 0.15 L/kg. The bioavailability in series [2] (plasma) stood at 13 ± 2.1%. Further, in series [2] (setting [5]), the AUC(0-inf) was determined as 271 ± 43 ng·h/mL, the exposure AUC(0-t) worked out at 264 ± 36 ng·h/mL, the Cmax is 259 ± 28 ng/mL and the Tmax came to 30 min. This compound also gave a half-life in series [2] (setting [5]) of 30.8 ± 2.46 min. In series [2] (setting [6]), this compound showed an AUMC0-inf of 232 ± 17 h · h · ng · mL^−1, an AUMC0-t of 196 ± 27 h · h · ng · mL^−1, a Kel of 3.64 ± 0.22 h⁻¹ and an MRTIV of 13.3 ± 1.56 min. In series [2] (single oral gavage, 10 mg/kg), this compound showed an AUMC0-inf of 284 ± 29 h · h · ng · mL^−1, an AUMC0-t of 269 ± 33 h · h · ng · mL^−1, a CL of 626 ± 93 mL·min/kg and a Kel of 1.77 ± 0.28 h⁻¹. Moreover, in series [2] (single oral gavage, 10 mg/kg), the MRTPO is recorded as 1.17 ± 0.09 h and the Vz came out at 31.2 ± 4.8 L/kg.
